The test relates to MC38 mouse colon cancer allograft tumor model. Put plainly: In vivo efficacy in the MC38 mouse colon cancer allograft tumor model. The note with it: 10 μg i.t.; for Tumor Volume, Day 0, Dosing side / Tumor Volume, Day 0, Non-dosing side: baseline at start of dosing; for Tumor Volume, Day 0, Dosing side / Tumor Volume, Day 0, Non-dosing side / Tumor Volume, Day 18, Dosing side / Tumor Volume, Day 18, Non-dosing side: mean ± SEM, n = 8; for Tumor Volume, Day 0, Dosing side / Tumor Volume, Day 0, Non-dosing side / Tumor Volume, Day 18, Dosing side / TGIvolume, Day 18, Dosing side: BIW×2; for Tumor Volume, Day 18, Non-dosing side / TGIvolume, Day 18, Non-dosing side: BIW×2 on the other side; for TGIvolume, Day 18, Dosing side / TGIvolume, Day 18, Non-dosing side: tumor volume inhibitory rate. The method, then:
In this experimental example, the changes in tumor volume and tumor weight of an MC38 mouse colon cancer transplanted tumor model were measured and recorded after intratumoral injection (i.t.) of compound 6 or compound 8, so as to test the efficacy of each test compound.
Experimental cell strain: Mouse colon cancer MC38 cells (Nanjing Cobioer) were cultured in a 37° C., 5% CO2 incubator (medium: RPMI-1640 (Hyclone) containing 10% fetal bovine serum (Gibco)). Trypsin-EDTA (Hyclone) was used for routine digestion and passage. When the cells were in the exponential phase with a saturation of […], the cells were collected and counted.
Experimental animals: C57BL/6J mice, 6-8 weeks old, female, weighing 18-20 grams. All mice were purchased from Beijing Vital River Laboratory Animal Technology Co., Ltd., and kept in a special pathogen-free (SPF) animal room.
The MC38 cells were resuspended in phosphate buffered saline (PBS) at a density of 5×10^6 cells/mL. 0.1 mL of PBS (containing 5×10^5 MC38 cells) was inoculated subcutaneously at the position of scapula at the right and left back of each mouse. When the average volume of the tumors at the left and right sides reached about 100 mm^3, the mice were randomly grouped according to the volumes of the tumors at the left and right sides.
When the average volume of the subcutaneously transplanted tumors reached about 100 mm^3, the mice were randomly grouped according to the volume of the tumors at the left and right sides, with 8 in each group. Administration was performed on the tumors at the right side via intratumoral injection at an administration frequency of BIW×2 for 2 weeks in total, while no administration was performed on the tumors at the left side. After administration, the volumes of tumors at the left and right sides were measured twice a week, and the death of the animals was observed every day.
The anti-tumor efficacy of the test compound was evaluated by the tumor volume inhibitory rate TGIvolume (%). The tumor volume was measured with a vernier caliper. The tumor volume is calculated according to the formula: V=0.5×a×b^2, wherein “a” and “b” represent the long diameter and short diameter of the tumor, respectively. The tumor volume inhibitory rate TGIvolume (%)=[(1−(the average tumor volume at the end of dosing to a dosing group−the average tumor volume at the start of dosing to the dosing group)/(the average tumor volume at the end of dosing to a vehicle control group−the average tumor volume at the start of dosing to the vehicle control group)]×100%. When the tumor volume at the end of dosing was smaller than the tumor volume at the start of dosing (i.e., tumor regression), TGIvolume (%)=[1−(the average tumor volume at the end of dosing to a dosing group−average the tumor volume at the start of dosing to the dosing group)/the average tumor volume at the start of dosing to the dosing group]×100%.
A statistical analysis was performed based on the tumor volume at the end of the experiment using the Graphpad Prism software. A comparison between the two groups was analyzed by Student's t-test. When P<0.05, it was considered as having a significant difference.

Structures are written as SMILES.

The source of these data is patent US12269816B2, “Benzothiophene compound, preparation method therefor and use thereof” (SICHUAN KELUN-BIOTECH BIOPHARMACEUTICAL CO., LTD., priority 2019, dated 2025).

As for `COc1cc2sc(C(=O)CCC(=O)O)cc2cc1OCCCOc1cc2cc(C(=O)N(C)CCC(=O)O)sc2cc1OC` [Compound 8, 4-(5-(3-((2-((2-carboxyethyl)(methyl)carbamoyl)-6-methoxybenzo[b]thiophen-5-yl)oxy)propoxy)-6-methoxybenzo[b]thiophen-2-yl)-4-oxobutanoic Acid], the “Tumor Volume, Day 0, Dosing side” value stood at 113.24 ± 12.33 mm^3; the “Tumor Volume, Day 0, Non-dosing side” value was 96.60 ± 11.50 mm^3; the “Tumor Volume, Day 18, Dosing side” value amounted to 0.00 ± 0.00 mm^3; the “Tumor Volume, Day 18, Non-dosing side” value came to 666.08 ± 100.92 mm^3. Also, the “TGIvolume, Day 18, Dosing side” value stood at 200.00% and the “TGIvolume, Day 18, Non-dosing side” value came out at 58.09%.
On to `COc1cc2sc(C(=O)CCC(=O)O)cc2cc1OCCCOc1cc2sc(C(=O)N(C)CCC(=O)O)cc2cc1OC` [Compound 6, 4-(5-(3-((2-((2-carboxyethyl)(methyl)carbamoyl)-5-methoxybenzo[b]thiophen-6-yl)oxy)propoxy)-6-methoxybenzo[b]thiophen-2-yl)-4-oxobutanoic acid], for which the “Tumor Volume, Day 0, Dosing side” value turned out to be 112.09 ± 11.95 mm^3; the “Tumor Volume, Day 0, Non-dosing side” value came to 96.07 ± 10.17 mm^3; the “Tumor Volume, Day 18, Dosing side” value is 105.10 ± 74.74 mm^3; the “Tumor Volume, Day 18, Non-dosing side” value is 760.69 ± 174.22 mm^3. Besides, the “TGIvolume, Day 18, Dosing side” value is reported as 106.24% and the “TGIvolume, Day 18, Non-dosing side” value turned out to be 51.09%.
